Experimental data: patent US12599136B2, “Substituted isophthalic acid diamides and their use as herbicides” (Bayer Aktiengesellschaft, priority 2020, dated 2026)

Columns and labels:
Format in all cases: in vivo
Viola tricolor [1] = assay: Post-emergence herbicidal action against VIOTR
Procedure, shortened: (§1)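 Greenhouse pot plants in sandy loam were sprayed at the one-leaf stage, 2 to 3 weeks after sowing, with WP or EC formulations as aqueous suspension or emulsion (600 to 800 l/ha water, 0.2% wetting agent). About 3 weeks later, damage was scored visually against untreated controls as % action (100% = dead, 0% = like control).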

Stellaria media [2] = assay: Post-emergence herbicidal action against STEME; conditions: for Post-emergence action against STEME in %: visual assessment about 3 weeks after treatment
Procedure, shortened: as §1

Cyperus esculentus [3] = assay: Pre-emergence herbicidal action against CYPES; conditions: for Pre-emergence action against CYPES: visual score after 3 weeks vs untreated controls; for Herbicidal action against CYPES: comparative experiment, pre-emergence
Procedure, shortened: (§2)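 Visual rating at 3 weeks vs untreated pots; 0–100% scale, 100% = plants died. Treatment: aqueous WP/EC spray onto covering soil, 600–800 l/ha, 0.2% wetter, seeds in sandy loam.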

Lolium rigidum [4] = assay: Post-emergence herbicidal action against LOLRI
Procedure: Seeds of monocotyledonous and dicotyledonous weed and crop plants are laid out in sandy loam soil in wood-fiber pots, covered with soil and cultivated in a greenhouse under good growth conditions. 2 to 3 weeks after sowing, the test plants are treated at the one-leaf stage. The compounds of the invention, formulated in the form of wettable powders (WP) or as emulsion concentrates (EC), are then sprayed onto the green parts of the plants in the form of an aqueous suspension or emulsion at a water application rate equivalent to 600 to 800 l/ha, with addition of 0.2% wetting agent. After the test plants have been left to stand in the greenhouse under optimal growth conditions for about 3 weeks, the action of the preparations is assessed visually in comparison to untreated controls (herbicidal action in percent (%): 100% activity=the plants have died, 0% activity=like control plants). […] The tables below illustrate, in an illustrative manner, the post-emergence herbicidal action of the compounds of the invention, the herbicidal activity being stated in percent.

Lolium rigidum [5] = assay: Pre-emergence herbicidal action against LOLRI
Procedure, shortened: as §2

Amaranthus retroflexus [6] = assay: Post-emergence herbicidal action against AMARE; conditions: visual assessment about 3 weeks after treatment
Procedure, shortened: as §1

Veronica persica [7] = assay: Pre-emergence herbicidal action against VERPE
Procedure, shortened: as §2

Cyperus esculentus [8] = assay: Post-emergence herbicidal action against CYPES; conditions: visual assessment about 3 weeks after treatment
Procedure, shortened: as §1

Matricaria inodora [9] = assay: Post-emergence herbicidal action against MATIN; conditions: for Post-emergence action against MATIN in %: visual assessment about 3 weeks after treatment
Procedure, shortened: as §1

Abutilon theophrasti [10] = assay: Post-emergence herbicidal action against ABUTH
Procedure, shortened: as §1

Hordeum murinum [11] = assay: Post-emergence herbicidal action against HORMU
Procedure, shortened: as §1

Echinochloa crus-galli [12] = assay: Pre-emergence herbicidal action against ECHCG; conditions: for Pre-emergence action against ECHCG: visual score after 3 weeks vs untreated controls; for Herbicidal action against ECHCG: comparative experiment, pre-emergence
Procedure, shortened: as §2

Avena fatua [13] = assay: Pre-emergence herbicidal action against AVEFA; conditions: for Pre-emergence action against AVEFA: visual score after 3 weeks vs untreated controls
Procedure, shortened: as §2

Abutilon theophrasti [14] = assay: Pre-emergence herbicidal action against ABUTH; conditions: for Pre-emergence action against ABUTH: visual score after 3 weeks vs untreated controls
Procedure, shortened: as §2

Stellaria media [15] = assay: Pre-emergence herbicidal action against STEME
Procedure, shortened: as §2

Amaranthus retroflexus [16] = assay: Pre-emergence herbicidal action against AMARE; conditions: for Pre-emergence action against AMARE: visual score after 3 weeks vs untreated controls; for Herbicidal action against AMARE: comparative experiment, pre-emergence
Procedure, shortened: as §2

Alopecurus myosuroides [17] = assay: Post-emergence herbicidal action against ALOMY
Procedure, shortened: as §1

Hordeum murinum [18] = assay: Pre-emergence herbicidal action against HORMU; conditions: visual score after 3 weeks vs untreated controls
Procedure, shortened: as §2

Echinochloa crus-galli [19] = assay: Post-emergence herbicidal action against ECHCG; conditions: visual assessment about 3 weeks after treatment
Procedure, shortened: as §1

Setaria viridis [20] = assay: Pre-emergence herbicidal action against SETVI; conditions: for Herbicidal action against SETVI: comparative experiment
Procedure, shortened: as §2

Matricaria inodora [21] = assay: Pre-emergence herbicidal action against MATIN; conditions: for Pre-emergence action against MATIN: visual score after 3 weeks vs untreated controls
Procedure, shortened: as §2

Alopecurus myosuroides [22] = assay: Pre-emergence herbicidal action against ALOMY; conditions: for Pre-emergence action against ALOMY: visual score after 3 weeks vs untreated controls
Procedure, shortened: as §2

Avena fatua [23] = assay: Post-emergence herbicidal action against AVEFA; conditions: for Post-emergence action against AVEFA in %: visual assessment about 3 weeks after treatment
Procedure, shortened: as §1

Polygonum convolvulus [24] = assay: Pre-emergence herbicidal action against POLCO; conditions: 320 g/ha
Procedure, shortened: as §2

Polygonum convolvulus [25] = assay: Post-emergence herbicidal action against POLCO; conditions: 80 g/ha, visual assessment about 3 weeks after treatment
Procedure, shortened: as §1

Viola tricolor [26] = assay: Pre-emergence herbicidal action against VIOTR; conditions: 320 g/ha
Procedure, shortened: as §2

Veronica persica [27] = assay: Post-emergence herbicidal action against VERPE; conditions: visual assessment about 3 weeks after treatment
Procedure, shortened: as §1

Pharbitis purpurea = assay: Post-emergence herbicidal action against PHBPU; conditions: 80 g/ha, visual assessment about 3 weeks after treatment
Procedure, shortened: as §1

Setaria viridis [28] = assay: Post-emergence herbicidal action against SETVI; conditions: for Post-emergence action against SETVI in %: visual assessment about 3 weeks after treatment
Procedure, shortened: as §1

[29] = comparative experiment, 5 g a.i./ha
[30] = comparative experiment, pre-emergence, 80 g a.i./ha
[31] = comparative experiment, pre-emergence, 20 g a.i./ha

CN(C)C(=O)c1c(C(F)(F)F)ccc(C(=O)Nc2nnnn2C)c1Cl [Example 1-123]
90%: Post-emergence action against LOLRI in % (Lolium rigidum [4]; 80 g/ha) | Pre-emergence action against VERPE (Veronica persica [7]; 320 g/ha) | Post-emergence action against CYPES in % (Cyperus esculentus [8]; 20 g/ha) | Post-emergence action against CYPES in % (Cyperus esculentus [8]; 80 g/ha) | Pre-emergence action against ECHCG (Echinochloa crus-galli [12]; 20 g/ha) | Pre-emergence action against AVEFA (Avena fatua [13]; 80 g/ha) | Pre-emergence action against STEME (Stellaria media [15]; 20 g/ha) | Pre-emergence action against STEME (Stellaria media [15]; 80 g/ha) | Pre-emergence action against STEME (Stellaria media [15]; 320 g/ha) | Pre-emergence action against AMARE (Amaranthus retroflexus [16]; 20 g/ha) | Pre-emergence action against HORMU (Hordeum murinum [18]; 80 g/ha) | Pre-emergence action against SETVI (Setaria viridis [20]; 20 g/ha) | Pre-emergence action against MATIN (Matricaria inodora [21]; 80 g/ha) | Pre-emergence action against MATIN (Matricaria inodora [21]; 320 g/ha) | Post-emergence action against AVEFA in % (Avena fatua [23]; 20 g/ha) | Pre-emergence action against POLCO (Polygonum convolvulus [24]) | Post-emergence action against POLCO in % (Polygonum convolvulus [25]) | Pre-emergence action against VIOTR (Viola tricolor [26])
80%: Post-emergence action against VIOTR in % (Viola tricolor [1]; 5 g/ha) | Pre-emergence action against CYPES (Cyperus esculentus [3]; 20 g/ha) | Post-emergence action against LOLRI in % (Lolium rigidum [4]; 20 g/ha) | Pre-emergence action against LOLRI (Lolium rigidum [5]; 80 g/ha) | Pre-emergence action against VERPE (Veronica persica [7]; 80 g/ha) | Post-emergence action against CYPES in % (Cyperus esculentus [8]; 5 g/ha) | Post-emergence action against MATIN in % (Matricaria inodora [9]; 5 g/ha) | Post-emergence action against MATIN in % (Matricaria inodora [9]; 20 g/ha) | Post-emergence action against HORMU in % (Hordeum murinum [11]; 5 g/ha) | Post-emergence action against HORMU in % (Hordeum murinum [11]; 20 g/ha) | Pre-emergence action against ABUTH (Abutilon theophrasti [14]; 20 g/ha) | Pre-emergence action against ALOMY (Alopecurus myosuroides [22]; 80 g/ha) | Post-emergence action against AVEFA in % (Avena fatua [23]; 5 g/ha) | Post-emergence action against VERPE in % (Veronica persica [27]; 5 g/ha) | Post-emergence action against VERPE in % (Veronica persica [27]; 20 g/ha)
70: Herbicidal action against MATIN (Matricaria inodora [21]; [31]) | Herbicidal action against ALOMY (Alopecurus myosuroides [22]; [31])
100: Herbicidal action against STEME (Stellaria media [2]; [29]) | Herbicidal action against CYPES (Cyperus esculentus [3]; 80 g a.i./ha) | Herbicidal action against ABUTH (Abutilon theophrasti [10]; [29]) | Herbicidal action against ECHCG (Echinochloa crus-galli [12]; 80 g a.i./ha) | Herbicidal action against ABUTH (Abutilon theophrasti [14]; [30]) | Herbicidal action against AMARE (Amaranthus retroflexus [16]; 80 g a.i./ha) | Herbicidal action against ALOMY (Alopecurus myosuroides [17]; [29]) | Herbicidal action against SETVI (Setaria viridis [20]; 80 g a.i./ha) | Herbicidal action against SETVI (Setaria viridis [28]; [29])
100%: Post-emergence action against VIOTR in % (Viola tricolor [1]; 20 g/ha) | Post-emergence action against VIOTR in % (Viola tricolor [1]; 80 g/ha) | Post-emergence action against STEME in % (Stellaria media [2]; 5 g/ha) | Post-emergence action against STEME in % (Stellaria media [2]; 20 g/ha) | Post-emergence action against STEME in % (Stellaria media [2]; 80 g/ha) | Pre-emergence action against CYPES (Cyperus esculentus [3]; 80 g/ha) | Pre-emergence action against CYPES (Cyperus esculentus [3]; 320 g/ha) | Pre-emergence action against LOLRI (Lolium rigidum [5]; 320 g/ha) | Post-emergence action against AMARE in % (Amaranthus retroflexus [6]; 5 g/ha) | Post-emergence action against AMARE in % (Amaranthus retroflexus [6]; 20 g/ha) | Post-emergence action against AMARE in % (Amaranthus retroflexus [6]; 80 g/ha) | Post-emergence action against MATIN in % (Matricaria inodora [9]; 80 g/ha) | Post-emergence action against ABUTH (Abutilon theophrasti [10]; 5 g/ha) | Post-emergence action against ABUTH (Abutilon theophrasti [10]; 20 g/ha) | Post-emergence action against ABUTH (Abutilon theophrasti [10]; 80 g/ha) | Post-emergence action against HORMU in % (Hordeum murinum [11]; 80 g/ha) | Pre-emergence action against ECHCG (Echinochloa crus-galli [12]; 80 g/ha) | Pre-emergence action against ECHCG (Echinochloa crus-galli [12]; 320 g/ha) | Pre-emergence action against AVEFA (Avena fatua [13]; 320 g/ha) | Pre-emergence action against ABUTH (Abutilon theophrasti [14]; 80 g/ha) | Pre-emergence action against ABUTH (Abutilon theophrasti [14]; Dosage column 320 g/ha (heading prints 3200 g/ha)) | Pre-emergence action against AMARE (Amaranthus retroflexus [16]; 80 g/ha) | Pre-emergence action against AMARE (Amaranthus retroflexus [16]; 320 g/ha) | Post-emergence action against ALOMY (Alopecurus myosuroides [17]; 5 g/ha) | Post-emergence action against ALOMY (Alopecurus myosuroides [17]; 20 g/ha) | Post-emergence action against ALOMY (Alopecurus myosuroides [17]; 80 g/ha) | Pre-emergence action against HORMU (Hordeum murinum [18]; 320 g/ha) | Post-emergence action against ECHCG in % (Echinochloa crus-galli [19]; 5 g/ha) | Post-emergence action against ECHCG in % (Echinochloa crus-galli [19]; 20 g/ha) | Post-emergence action against ECHCG in % (Echinochloa crus-galli [19]; 80 g/ha) | Pre-emergence action against SETVI (Setaria viridis [20]; 80 g/ha) | Pre-emergence action against SETVI (Setaria viridis [20]; 320 g/ha) | Pre-emergence action against ALOMY (Alopecurus myosuroides [22]; 320 g/ha) | Post-emergence action against AVEFA in % (Avena fatua [23]; 80 g/ha) | Post-emergence action against VERPE in % (Veronica persica [27]; 80 g/ha) | Post-emergence action against PHBPU in % (Pharbitis purpurea) | Post-emergence action against SETVI in % (Setaria viridis [28]; 5 g/ha) | Post-emergence action against SETVI in % (Setaria viridis [28]; 20 g/ha) | Post-emergence action against SETVI in % (Setaria viridis [28]; 80 g/ha)
80: Herbicidal action against CYPES (Cyperus esculentus [3]; 20 g a.i./ha) | Herbicidal action against MATIN (Matricaria inodora [9]; [29]) | Herbicidal action against AVEFA (Avena fatua [23]; [29])
90: Herbicidal action against ECHCG (Echinochloa crus-galli [12]; 20 g a.i./ha) | Herbicidal action against AVEFA (Avena fatua [13]; [30]) | Herbicidal action against AMARE (Amaranthus retroflexus [16]; 20 g a.i./ha) | Herbicidal action against SETVI (Setaria viridis [20]; 20 g a.i./ha)
